Measured values: patent US10980769B2, “Tiglien-3-one derivatives” (QBIOTICS PTY LTD, priority 2005, dated 2021)
Entries after “also recorded” stand apart in the source; their conditions may differ.

How the values were obtained:
Solubility tests = type: physicochemical
Text: It requires a small amount of such solvents to form aqueous solutions. […] Higher solubilities may well be achieveable.

MM96L cell line = test: Changes in morphology of cultured cells; type: cell-based, human
[1] = system: human nasopharyngeal tumour; test: Intralesional injection of human nasopharyngeal tumour in SCID-NOD mice; type: in vivo, mouse; conditions: up to 3 injections, total of 25 μg in 25% propylene glycol-saline, 2 mice
Method: A second mouse model was tested in a pilot study, involving an 8 mm diameter human nasopharyngeal tumour implanted and growing subcutaneously on the neck of a SCID-NOD mouse. Up to 3 injections of EBI-46 (total of 25 μg in 75 μL25% propylene glycol-saline) were made into the NPC tumours of 2 mice.

Trichophyton rubrum = test: MycoTOX (Tr) antifungal bioassay; type: cell-based
Method: MycoTOX (alternatively referred to herein as Tr) is a non-chromogenic bioassay used to detect activity against filamentous fungal pathogens of plants and animals. The bioassay features a solid phase agar base into which the test compound has been incorporated. As the growth patterns of filamentous fungi are readily apparent on the agar surface the extent of mycelial growth, sporulation (if relevant to the species under investigation) and colour changes with maturation are measured.
MycoTOX, involves a fungus (spore suspension or mycelial fragments) being applied to the surface of an agar matrix containing the test chemical and allowed to grow for a period of up to a week (depending on species). The assay is monitored at two discrete times to identify key development phases in the life cycle (for example mycelial growth and extent of sporulation) and the active wells noted. The monitoring times are dependent on the fungal species under investigation.
The MycoTOX assays were carried out using Trichophyton rubrum. The MycoTOX test is alternatively referred to as Tr to indicate the use of Trichophyton rubrum.

LK-2 mouse SCC = test: Intralesional injection of LK-2 SCC tumours in mice; type: in vivo
Method: Squamous Cell Carcinoma (SCC) tumours were established by the same method as for topical treatment but were allowed to grow for 15 days before drug treatment. 7 μg EBI-46 in 20 μL, saline was injected into each of 3 sides of the tumour. Tumour size was measured with calipers at appropriate intervals.
(§1) Animal experiments were conducted under Queensland Institute of Medical Research (QIMR) Animal Ethics Committee approvals. The B16 mouse melanoma model was obtained by injecting 0.5 million B16 mouse melanoma cells subcutaneously into each of the 2 flanks of a male C57BL/6 mouse. The human tumour xenografts were obtained by injecting 2 million of the respective tumour cell line into each of 4 sites on the flanks of male nude mice (BALB/c background). EBI-46 was applied: (a) topically by dilution of a concentrated solution in acetone into an isopropanol gel, once a day for 3 days; (b) intralesionally by injection into the tumour of drug dissolved in 25% propylene glycol-0.1 M saline, (c) systemically by injection intraperitoneally in 25% propylene glycol in 0.1 M saline. Tumour size was measured with electronic callipers in mm and converted to volume (cubic mm) using the formula: Tumour volume=length×breadth×breadth/2. Results
A pilot study was conducted on 6 mm×6 mm LK-2 tumours established in nude mice. Approximately 50 μL of a solution of EB548 fractions (approximately 20 μg EBI-46 in the EB548-35 fraction) in saline containing 20% acetone were injected in 3 sites around the periphery of each lesion. This was only done once.
With PEG 400 delivery, 10 μg EBI-46 in 25 μL solution was injected (29 gauge) with a 0.5 mL insulin needle into a 7 mm×7 mm tumour, highly visible on the left flank of a nude mouse.

Haemonchus contortus = test: NemaTOX (Ne) anthelmintic larval development bioassay
Method: NemaTOX (alternatively referred to herein as Ne) is an anthelmintic bioassay, applicable to all parasitic nematodes with free-living life cycle stages, and can be used as a screen to detect activity and define the species spectrum of compounds against parasitic nematodes and examine the impact of pre-existing resistance to other anthelmintic classes on potency. Haemonchus contortus was utilised for this assay.
The effect on larval development was determined in this assay by the method described by Gill et al. (1995) Int. J. Parasitol. 25: 463-470. Briefly, in this assay nematode eggs were applied to the surface of an agar matrix containing the test sample and allowed to develop through to the L3, infective stage (6 days). At this time the stage of larval development reached and any unusual features (deformity, paralysis, toxicity) were noted by microscopic examination.

Stability = type: physicochemical
Text: This instability was observed upon nitrogen evaporation but not while in acetonitrile/water solution at room temperature or on vacuum evaporation. To avoid decomposition the equivalent four bands of active metabolites from the second preparative HPLC were individually back extracted in the ethyl acetate and evaporated under vacuum. Analytical HPLC of these samples confirmed minimal decomposition.
[…] The structure has no readily reactive groups which might otherwise confer instability.

LK2 mouse SCC = test: Topical treatment of LK2 mouse SCC tumours in nude mice; type: in vivo
Method: Tumour cells were injected subcutaneously (2 million cells/site in 50 μL culture medium for LK2 cells, 0.5 million for B16) into 4 sites each on the flanks of nude mice (for LK2 cells) or C57BL/6 mice (B16 mouse melanoma cells). When tumours became visible (2-4 mm diameter) five to 10 days after injection of cells, 37 μg of EBI-46 in 25 μL, of isopropanol gel was applied to each tumour site, each day for 3 days. Tumour size was measured with calipers at appropriate intervals.
as §1
The above was repeated using the UVB-induced mouse squamous cell carcinoma (SCC) grown on nude mice (FIG. 6) and treated with partially-purified EBI-46.
The most recent experiment with topical application used 2 different doses of EBI-46 (FIG. 7). The low dose was 100 μg/site and the high dose was 350 μg/site/treatment.

PKC = PKC activation in cultured tumour cells (scattering and growth inhibition of MCF7); type: cell-based, human; conditions: defined by scattering and growth inhibition of MCF7 breast cancer cells
normal skin = test: Inflammatory response of skin; conditions: in vivo

C/C=C(\C)C(=O)OC1C(C)C2(O)C(C3OC3(CO)C(O)C3(O)C(=O)C(C)=CC32)C2C(C)(C)C12OC(=O)C(C)CC (centres unmarked) [EBI-46, 12-tigloyl-13-(2-methylbutanoyl)-6,7-epoxy-4,5,9,12,13,20-hexahydroxy-1-tiglian-3-one]
solubility (Solubility tests; 5 μg/mL in 99.9% water): 100% | solubility (Solubility tests; 50 μg/mL in 99% water): 100% | solubility (Solubility tests; 450 μg/mL in 90% water): 100% | solubility in vehicle (Solubility tests; 25% propylene glycol-saline, 250 μg/mL): no sign of insolubility | solubility in vehicle (Solubility tests; PEG 400 containing 10% ethanol): freely soluble | solubility in organic solvents (Solubility tests; acetone, alcohols and PEG 400): highly soluble | change in morphology of MM96L cells (MM96L cell line): characteristic change to bipolar morphology; also recorded: extreme bipolar morphology | tumour outcome [1]: no sign of residual tumour; also recorded: delayed but not ablated | Tr Titre (Trichophyton rubrum): 0 | tumour at 16 hours (LK-2 mouse SCC; 10 μg in 25 μL PEG 400 containing 10% ethanol, 7 mm × 7 mm tumour): tumour lump had largely gone | time mouse remained tumour-free (LK-2 mouse SCC; 10 μg in PEG 400 containing 10% ethanol, single injection): over 9 months | systemic toxicity or lung metastases on post mortem (LK-2 mouse SCC; intralesional 21 ug): There were no signs of | tumour size (LK-2 mouse SCC; intralesional 21 ug (3 × 7 ug), 15-day established tumours): reduction of tumour size. | Ne Titre (Haemonchus contortus): 2 | Ne LD99 (Haemonchus contortus; Table 6a, last well with activity, real value may be lower): 31 pg/mL | stability of solution (Stability; 25% propylene glycol-saline at 4° C.): stable for weeks | stability by HPLC (Stability; PEG 400 containing 10% ethanol held at 37° C.): confirmed | stability of solutions (Stability; in ethanol, 4° C. for 4 weeks): retain bioactivity | tumours cured and healed without scarring (LK2 mouse SCC; 37 ug/site in isopropanol gel once a day for 3 days, nude mice): without scarring of 3 out of 4 | systemic toxicity or lung metastases on post mortem (LK2 mouse SCC; 37 ug/site once a day for 3 days): no signs of systemic toxicity | tumour growth inhibition result (LK2 mouse SCC; high dose 350 μg/site/treatment): excellent result | PKC activity (PKC): yes | effect on skin (normal skin): can cause inflammation of skin; also recorded: causes an inflammatory response in normal skin
